Data on 29 compounds can be found in patent US7824866B2, “Ligand for G-protein coupled receptor GPR72 and uses thereof” (Euroscreen S.A., priority 2006, dated 2010).

T2 sequence (Q9NYM4 17-423): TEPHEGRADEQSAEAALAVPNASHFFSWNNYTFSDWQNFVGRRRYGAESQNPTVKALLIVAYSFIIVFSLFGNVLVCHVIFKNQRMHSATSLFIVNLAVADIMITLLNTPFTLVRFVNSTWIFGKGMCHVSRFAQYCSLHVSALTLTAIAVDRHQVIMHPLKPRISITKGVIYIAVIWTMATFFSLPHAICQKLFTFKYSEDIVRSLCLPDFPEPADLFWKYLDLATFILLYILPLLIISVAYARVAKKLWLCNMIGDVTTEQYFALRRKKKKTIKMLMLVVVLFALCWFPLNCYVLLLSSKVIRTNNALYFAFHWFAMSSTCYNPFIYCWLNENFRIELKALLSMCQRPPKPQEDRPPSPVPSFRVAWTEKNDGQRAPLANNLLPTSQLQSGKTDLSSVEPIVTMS

The target in one assay is T1, mouse GPR72 (Mus musculus, UniProt P30731).
T1 construct: expressed in transfected cells; host or cells: CHO-K1 cells coexpressing apoaequorin
T1 sequence (P30731 18-423): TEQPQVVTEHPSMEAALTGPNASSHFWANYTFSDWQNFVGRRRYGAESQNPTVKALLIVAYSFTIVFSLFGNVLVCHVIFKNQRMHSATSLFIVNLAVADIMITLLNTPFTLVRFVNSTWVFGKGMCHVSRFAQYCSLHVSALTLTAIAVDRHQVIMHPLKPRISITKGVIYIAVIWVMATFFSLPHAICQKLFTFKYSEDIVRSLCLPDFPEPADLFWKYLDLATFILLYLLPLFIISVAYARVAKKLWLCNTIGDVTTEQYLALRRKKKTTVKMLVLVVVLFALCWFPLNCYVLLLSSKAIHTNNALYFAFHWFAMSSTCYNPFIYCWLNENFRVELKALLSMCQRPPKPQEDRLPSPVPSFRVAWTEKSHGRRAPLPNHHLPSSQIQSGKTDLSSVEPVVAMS
The assay can be described thus: aequorin intracellular calcium release assay, CHO-K1 cells expressing mouse GPR72. In kind it is cell-based. The following applies: CHO-K1 cells coexpressing mouse GPR72 and apoaequorin; FIG. 6. On the procedure:
The aequorin assay takes advantage of the responsiveness of mitochondrial apoaequorin to intracellular calcium release induced by the activation of GPCRs (Stables et al., 1997, Anal. Biochem. 252:115-126; Detheux et al., 2000, J. Exp. Med., 192 1501-1508; both of which are incorporated herein by reference). Briefly, GPR72 polypeptide-expressing clones are transfected to coexpress mitochondrial apoaequorin and Gα16. Cells are incubated with 5 μM Coelenterazine H (Molecular Probes) for 4 hours at room temperature, washed in DMEM-F12 culture medium and resuspended at a concentration of 0.5×10^6 cells/ml. Cells are then mixed with test agonist molecules and light emission by the aequorin is recorded with a luminometer for 30 sec. Results are expressed as Relative Light Units (RLU). […]
GPR72 expressing clones have been obtained by transfection of CHO-K1 cells to coexpressing mitochondrial apoaequorin and […], limiting dilution and selection by RT-PCR. […] A functional assay based on the luminescence of mitochondrial aequorin intracellular Ca^2+ release (Stables et al., 1997, Anal. Biochem. 252:115-126; incorporated herein by reference) was performed as described (Detheux et al., 2000, J. Exp. Med., 192 1501-1508; incorporated herein by reference). […] Results are expressed as Relative Light Units (RLU). […]
A general note: Calcium assays in cells follow changes in intracellular calcium, usually with a dye or a luminescent sensor.
On to `CCCCC/C=C\C/C=C\C/C=C\C/C=C\CCCC(=O)O` [arachidonic acid, 5,8,11,14-all-cis-eicosatetraenoic acid], for which the “concentration at which the mouse GPR72 is specifically activated” value was “around 5 micromolar”.

Another assay concerns the target T2, human GPR72 (Homo sapiens, UniProt Q9NYM4). The assay can be described thus: Aequorin-based functional assay: intracellular calcium release (luminescence) in CHO-K1 cells stably expressing human GPR72, mitochondrial apoaequorin and Galpha16. In kind it is cell-based. Also noted: expressed in transfected cells.
Conditions: not given
By EC50 is commonly meant the concentration giving half of the maximal effect. Consider `CCCCC/C=C\C/C=C\C/C=C\C/C=C\CCCC(=O)NCC(=O)O` [N-arachidonoyl-glycine], for which the EC50 came to 3.5 µM.

In the case of `CCCCC/C=C\C/C=C\C/C=C\C/C=C\CCCC(=O)O` [Eicosa-5Z,8Z,11Z,14Z-tetraenoic acid], the EC50 was 5 µM.

For the compound `CC/C=C\C/C=C\C/C=C\CCCCCCCC(=O)O` [Octadeca-9Z,12Z,15Z-trienoic acid], the concentration giving a half-maximal response (EC50) is 4.7 µM.

Staying with this assay, now noted: Figure 8, SAR of arachidonic acid on human GPR72 activation; CHO-K1 cells, aequorin; read-out: GPR72 EC50.
With `CC1=C(/C=C/C(C)=C\C=C\C(C)=C\C(=O)O)C(C)(C)CCC1` [9-cis-Retinoic acid], the half-maximal effective concentration (EC50) worked out at 0.4 µM.

On to `CCCCC/C=C\C/C=C\C/C=C\C/C=C\CCCC(=O)NCCCC(=O)O` [N-arachidonoyl-γ-aminobutyric acid], for which the EC50 was found to be 4.3 µM.

For the compound `CCCCC/C=C\C/C=C\C/C=C\CCCCCCC(=O)O` [Eicosa-8Z,11Z,14Z-trienoic acid], the concentration for a half-maximal effect (EC50) is 44 µM.

Take `CC/C=C\C/C=C\C/C=C\C/C=C\C/C=C\CCCCCC(=O)O` [Docosa-7Z,10Z,13Z,16Z,19Z-pentaenoic acid]: the half-maximal effective concentration (EC50) came out at 9.3 µM.

Take `CC1=C(/C=C/C(C)=C/C=C/C(C)=C/C(=O)O)C(C)(C)CCC1` [All-trans-retinoic acid]: the EC50 worked out at 86 µM.

As for `CCCCC/C=C\C/C=C\C/C=C\C/C=C\CCCC(=O)N[C@@H](CO)C(=O)O` [N-arachidonoyl-L-serine], the 50% effective concentration (EC50) is 3 µM.

With `CC/C=C\C/C=C\C/C=C\C/C=C\CCCCCCC(=O)O` [Eicosa-8Z,11Z,14Z,17Z-tetraenoic acid], the EC50 turned out to be 6 µM.

With `CC/C=C\C/C=C\C/C=C\C/C=C\C/C=C\CCCC(=O)O` [Eicosa-5Z,8Z,11Z,14Z,17Z-pentaenoic acid], the 50% effective concentration (EC50) worked out at 3.3 µM.

As for `CCCCC/C=C\C/C=C\C/C=C\C/C=C\CCCC(=O)NCCS(=O)(=O)O` [N-arachidonoyl-L-taurine], the EC50 is 1.3 µM.

Consider `CCCCC/C=C\C/C=C\C/C=C\C/C=C\CCCC(=O)NCC(O)CC(=O)O` (stereo not drawn) [N-arachidonoyl-3-hydroxy-γ-aminobutyric acid], for which the concentration giving a half-maximal response (EC50) was found to be 0.7 µM.

As to `CCCCC/C=C\C/C=C\CCCCCCCCCC(=O)O` [Eicosa-11Z,14Z-dienoic acid], the concentration giving a half-maximal response (EC50) came to 17.9 µM.

With `CCCCC/C=C\C/C=C\C/C=C\CCCCC(=O)O` [Octadeca-6Z,9Z,12Z-trienoic acid], the half-maximal effective concentration (EC50) was 0.8 µM.

For `CC/C=C\C/C=C\C/C=C\CCCCCCCCCCCC(=O)O` [Docosa-13Z,16Z,19Z-trienoic acid], the EC50 is 25 µM.

For `CCCCC/C=C\C/C=C\C/C=C\C/C=C\CCCC(=O)N[C@@H](C)C(=O)O` [N-arachidonoyl-L-alanine], the EC50 was 2.9 µM.

`CCCCCCCC/C=C\C/C=C\C/C=C\CCCC(=O)O` [Eicosa-5Z,8Z,11Z-trienoic acid]: the EC50 was 6.3 µM.

On to `CC/C=C\C/C=C\C/C=C\C/C=C\C/C=C\C/C=C\CCC(=O)O` [Docosa-4Z,7Z,10Z,13Z,16Z,19Z-hexaenoic acid], for which the EC50 came to 2 µM.

The assay is the same for the next values; noted with them: Figure 9, additional PUFAs; CHO-K1 cells stably expressing human GPR72, aequorin; read-out: human GPR72 receptor EC50.
For `CCCCC/C=C\C/C=C\C/C=C\C/C=C\CCCCCC(=O)O` [Docosa-7Z,10Z,13Z,16Z-tetraenoic acid], the concentration for a half-maximal effect (EC50) was 10 µM.

For the compound `CC/C=C\C/C=C\C/C=C\C/C=C\CCCCC(=O)O` [Octadeca-6Z,9Z,12Z,15Z-tetraenoic acid], the EC50 is 74 µM.

For the compound `CC1=C(/C=C/C(C)=C/C=C/C(C)=C\C(=O)O)C(C)(C)CCC1` [13-cis-Retinoic acid], the concentration giving a half-maximal response (EC50) is 16 µM.

With `CCCCCC#CCC#CCC#CCC#CCCCC(=O)O` [Eicosa-5,8,11,14-tetraynoic acid], the concentration for a half-maximal effect (EC50) is 27 µM.

With `CCCCCCCCC#CCC#CCC#CCCCC(=O)O` [Eicosa-5,8,11-triynoic acid], the EC50 stood at 12 µM.

On to `CC/C=C\C/C=C\C/C=C\CCCCCCCCCC(=O)O` [Eicosa-11Z,14Z,17Z-trienoic acid], for which the EC50 was determined as 25 µM.

The same assay, now with this note: Figure 10, thiazolidinediones; CHO-K1 cells stably expressing human GPR72, aequorin; read-out: human GPR72 receptor EC50.
Turning to `O=C1NC(=O)C(Cc2ccc3cc(OCc4ccccc4F)ccc3c2)S1` (stereo not drawn) [MCC-555], the EC50 was 25 µM.

For the compound `CC1(COc2ccc(CC3SC(=O)NC3=O)cc2)CCCCC1` (stereo not drawn) [Ciglitazone], the EC50 amounted to 35 µM.

In the next assay the target is T2, human GPR72. Nature of the assay: aequorin intracellular calcium release assay, CHO-K1 cells expressing human GPR72. Conditions: CHO-K1 cells coexpressing human GPR72 and apoaequorin; mock-transfected cells as control; FIG. 5. In kind it is cell-based. Also noted: expressed in transfected cells; host or cells: CHO-K1 cells coexpressing mitochondrial apoaequorin and a G alpha subunit (Gα16). How it is done:
The aequorin assay takes advantage of the responsiveness of mitochondrial apoaequorin to intracellular calcium release induced by the activation of GPCRs (Stables et al., 1997, Anal. Biochem. 252:115-126; Detheux et al., 2000, J. Exp. Med., 192 1501-1508; both of which are incorporated herein by reference). Briefly, GPR72 polypeptide-expressing clones are transfected to coexpress mitochondrial apoaequorin and Gα16. Cells are incubated with 5 μM Coelenterazine H (Molecular Probes) for 4 hours at room temperature, washed in DMEM-F12 culture medium and resuspended at a concentration of 0.5×10^6 cells/ml. Cells are then mixed with test agonist molecules and light emission by the aequorin is recorded with a luminometer for 30 sec. Results are expressed as Relative Light Units (RLU). Controls include assays using […] not expressing GPR72 polypeptide (mock transfected), in order to exclude possible non-specific effects of the candidate compound.
GPR72 expressing clones have been obtained by transfection of CHO-K1 cells to coexpressing mitochondrial apoaequorin and […], limiting dilution and selection by RT-PCR. Positive clones were used for biological extract library screening with porcine spleen extracts prepared as described above. A functional assay based on the luminescence of mitochondrial aequorin intracellular Ca^2+ release (Stables et al., 1997, Anal. Biochem. 252:115-126; incorporated herein by reference) was performed as described (Detheux et al., 2000, J. Exp. Med., 192 1501-1508; incorporated herein by reference). Briefly, cells were collected from plates in PBS containing 5 mM EDTA, pelleted and resuspended at 5×10^6 cells/ml in DMEM-F12 medium. Cells were incubated with 5 μM Coelenterazine H (Molecular Probes) for 4 hours at room temperature. Cells were then washed in DMEM-F12 medium and resuspended at a concentration of 0.5×10^6 cells/ml. Cells were then mixed with test agonist peptides or plates containing tissue extracts and the light emission was recorded for 30 sec using a Microlumat luminometer (Perkin Elmer). Results are expressed as Relative Light Units (RLU).
After being identified from active porcine […] fraction, ability of arachidonic acid to trigger intracellular calcium release was tested on CHO-K1 cell lines coexpressing the human or the mouse GPR72 receptor and apoaequorin. We have used the aequorin assay as previously described in Detheux et al. (2000) J exp Med. 192, 1501-1508. […] Arachidonic acid was also able to activate specifically the mouse GPR72 at concentration around 5 micromolar (FIG. 6).
PUFAs were tested on CHO-K1 cells stably expressing the human GPR72 for their ability to trigger intracellular calcium using aequorin. Obtained EC50 are in the 1-20 μM range (FIG. 7).
For the compound `CCCCC/C=C\C/C=C\C/C=C\C/C=C\CCCC(=O)O` [arachidonic acid, 5,8,11,14-all-cis-eicosatetraenoic acid], the “concentration at which the human GPR72 is specifically activated” value was “around 5 micromolar”.

The assay is the same for the next values; noted with them: human GPR72 receptor; FIG. 8.
Regarding `CCCCC/C=C\C/C=C\C/C=C\C/C=C\CCCC(=O)OC` [arachidonic acid methyl ester], the “activity on GPR72 (structure-activity relationship)” value (shortened to “activity on GPR72”) is “not active”.

`CCCCC/C=C\C/C=C\C/C=C\C/C=C\CCCC(=O)O` [arachidonic acid, 5,8,11,14-all-cis-eicosatetraenoic acid]: the “activity on GPR72” value is “active”.

As to `CCCCC/C=C\C/C=C\C/C=C\C/C=C\CCCC(=O)NCC(=O)O` [N-arachidonoyl-glycine], the “activity on GPR72” value is “active”.

On to `CCCCC/C=C\C/C=C\C/C=C\C/C=C\CCCC(=O)NCCS(=O)(=O)O` [N-arachidonoyl-L-taurine], for which the “activity on GPR72” value was “active”.
